The values below come from patent publication US11532406B2, “High specific activity preparation of F-18 tetrafluoroborate” (Mayo Foundation for Medical Education and Research, priority 2016, dated 2022).

The series is described as follows: Estimated plasma / in vivo concentration of TFB after ~400 MBq ^18F-TFB. Set-up: species or system human. The following applies: specific activity of 8 GBq/μmol, ~400 MBq administered dose.

On to `F[B-](F)(F)[18F]` [^18F-TFB, ^18F-tetrafluoroborate], for which the “estimated in vivo concentration of TFB” value is about 0.02 µM.
